The values that follow come from patent US12139520B2 (priority 2020, dated 2024).

In one data set the target is hAM1 receptor (Homo sapiens, UniProt O60895+Q16602). Description: cAMP assay for in vitro receptor activation, hAM1-R. The format is cell-based. Put shortly: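 Read-out is intracellular cAMP as a measure of receptor activation. Cells stably overexpressing hAM1 were subcloned to a monoclonal line, then thawed and seeded at 8000 cells/well in DPBS with 0.05% casein and the phosphodiesterase inhibitor IBMX at 0.5 mM.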
Sequence of hAM1 receptor (Q16602 23-461): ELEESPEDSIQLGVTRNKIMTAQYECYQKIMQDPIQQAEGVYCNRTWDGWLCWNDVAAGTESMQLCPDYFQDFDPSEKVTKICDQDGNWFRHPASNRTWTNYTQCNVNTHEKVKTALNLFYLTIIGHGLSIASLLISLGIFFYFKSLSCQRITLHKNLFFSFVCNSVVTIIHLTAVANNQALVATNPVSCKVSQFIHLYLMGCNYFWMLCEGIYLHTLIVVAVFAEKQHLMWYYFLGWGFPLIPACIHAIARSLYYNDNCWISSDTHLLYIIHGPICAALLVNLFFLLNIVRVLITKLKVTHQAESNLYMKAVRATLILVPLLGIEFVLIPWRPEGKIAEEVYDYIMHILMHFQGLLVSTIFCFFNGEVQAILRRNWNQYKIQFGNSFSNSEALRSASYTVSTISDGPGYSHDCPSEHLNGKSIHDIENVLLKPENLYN
Sequence of hAM1 receptor (O60895 43-175 partner): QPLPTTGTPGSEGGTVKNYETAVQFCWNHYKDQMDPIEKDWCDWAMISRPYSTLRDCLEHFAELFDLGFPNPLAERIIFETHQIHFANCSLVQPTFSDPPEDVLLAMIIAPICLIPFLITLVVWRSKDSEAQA
In general terms: cAMP levels reflect the balance of adenylyl cyclase and phosphodiesterase activity.

Data set [1] is described as follows: Physical stability of peptide analogues (Thioflavin T fibrillation). The format is physicochemical. Particulars: maximum ThT signal normalized between hAMY maximum and buffer background; 40° C., shaking, four days; pH 7 per table title. An outline of the steps:
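Samples are stressed at 40 °C for four days, being shaken at 700 rpm before each 10-min fluorescence reading of 4 μM Thioflavin T. Buffers were pH 4 acetate or pH 7 phosphate. Reported values are smoothed maximum ThT signals as a percentage of the hAMY-to-background range.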

Where [2] appears, read: cAMP assay, hAM1 receptor, read-out: hAM1R EC50.

Read-outs that look alike come from different tables or passages of the source. Bridge positions count the residues as written; N and C are the ends. Square brackets hold non-standard residues; d marks the D form. Peptide text beside a SMILES is read from it. Hyp = O=C(O)[C@@H]1C[C@@H](O)CN1; Cit = NC(=O)NCCC[C@H](N)C(=O)O

One may read the EC50 as the midpoint of the concentration-response curve. Take `CC[C@H](C)[C@H](NC(=O)[C@H](CCC(N)=O)NC(=O)[C@H](Cc1c[nH]cn1)NC(=O)[C@H](C)NC(=O)[C@H](CC(C)C)NC(=O)[C@H](CCCNC(=N)N)NC(=O)[C@H](CCC(N)=O)NC(=O)[C@@H](NC(=O)[C@@H](NC(=O)[C@@H]1CSSC[C@H](NC(=O)CN)C(=O)N[C@@H](CCCNC(=N)N)C(=O)N[C@@H]([C@@H](C)O)C(=O)NCC(=O)N[C@@H]([C@@H](C)O)C(=O)N1)[C@@H](C)O)C(C)C)C(=O)N[C@@H](Cc1ccc(O)cc1)C(=O)N[C@@H](CCC(N)=O)C(=O)N[C@@H](Cc1ccccc1)C(=O)N[C@H](C(=O)N[C@@H](CC(N)=O)C(=O)N[C@@H](CCCCN)C(=O)N[C@@H](CC(=O)O)C(=O)N[C@@H](CCCCN)C(=O)N[C@@H](CC(=O)O)C(=O)N[C@@H](CC(N)=O)C(=O)N[C@H](C(=O)N[C@@H](C)C(=O)N1CCC[C@H]1C(=O)N[C@@H](CCCNC(=N)N)C(=O)N[C@@H](CO)C(=O)N[C@@H](CCCCN)C(=O)N[C@H](C(=O)N[C@@H](CO)C(=O)N1CCC[C@H]1C(=O)N[C@@H](CCC(N)=O)C(=O)N[C@@H](Cc1c[nH]c2ccccc12)C(=O)N1C[C@H](O)C[C@H]1C(N)=O)[C@@H](C)CC)C(C)C)[C@@H](C)O` [compound 220] (H-GCRTGTCTVQRLAHQIYQFTNKDKDNVAPRSKISPQW[Hyp]-NH2; disulfide 2-7): the 50% effective concentration (EC50) on hAM1 receptor (setting [2]) was above 5 µM. Further, the “Max ThT signal (%)” value in data set [1] stood at 1.100%.

Take `CC[C@H](C)[C@H](NC(=O)[C@H](CCC(N)=O)NC(=O)[C@H](Cc1c[nH]cn1)NC(=O)[C@H](C)NC(=O)[C@H](CC(C)C)NC(=O)[C@H](CCCNC(=N)N)NC(=O)[C@H](CCC(N)=O)NC(=O)[C@@H](NC(=O)[C@@H](NC(=O)[C@@H]1CSSC[C@H](NC(=O)CN)C(=O)N[C@@H](CCCNC(=N)N)C(=O)N[C@@H](Cc2ccccc2)C(=O)NCC(=O)N[C@@H]([C@@H](C)O)C(=O)N1)[C@@H](C)O)C(C)C)C(=O)N[C@@H](Cc1ccc(O)cc1)C(=O)N[C@@H](CCC(N)=O)C(=O)N[C@@H](Cc1ccccc1)C(=O)N[C@H](C(=O)N[C@@H](CC(=O)O)C(=O)N[C@@H](CCCCN)C(=O)N[C@@H](CC(=O)O)C(=O)N[C@@H](CCCCN)C(=O)N[C@@H](CC(=O)O)C(=O)N[C@@H](CC(N)=O)C(=O)N[C@H](C(=O)N[C@@H](C)C(=O)N1CCC[C@H]1C(=O)N[C@@H](CCCNC(=N)N)C(=O)N[C@@H](CO)C(=O)N[C@@H](CCCCN)C(=O)N[C@H](C(=O)N[C@@H](CO)C(=O)N1CCC[C@H]1C(=O)N[C@@H](CCC(N)=O)C(=O)N[C@H](C(=O)N1C[C@H](O)C[C@H]1C(N)=O)[C@@H](C)O)[C@@H](C)CC)C(C)C)[C@@H](C)O` [compound 168] (H-GCRFGTCTVQRLAHQIYQFTDKDKDNVAPRSKISPQT[Hyp]-NH2; disulfide 2-7; N-terminus assumed): the EC50 at hAM1 receptor (setting [2]) is above 5 µM. Also, the “Max ThT signal (%)” value in data set [1] was found to be 12.500%.

`CC[C@H](C)[C@H](NC(=O)[C@H](CCC(N)=O)NC(=O)[C@H](Cc1c[nH]cn1)NC(=O)[C@H](C)NC(=O)[C@H](CC(C)C)NC(=O)[C@H](CCCNC(=N)N)NC(=O)[C@H](CCC(N)=O)NC(=O)[C@@H](NC(=O)[C@@H](NC(=O)[C@@H]1CSSC[C@H](NC(=O)CN)C(=O)N[C@@H](CCCNC(=N)N)C(=O)N[C@@H]([C@@H](C)O)C(=O)NCC(=O)N[C@@H]([C@@H](C)O)C(=O)N1)[C@@H](C)O)C(C)C)C(=O)N[C@@H](Cc1ccc(O)cc1)C(=O)N[C@@H](CCC(N)=O)C(=O)N[C@@H](Cc1ccccc1)C(=O)N[C@H](C(=O)N[C@@H](CC(=O)O)C(=O)N[C@@H](CCCCN)C(=O)N[C@@H](Cc1ccccc1)C(=O)N[C@@H](CCCCN)C(=O)N[C@@H](CC(=O)O)C(=O)N[C@@H](CC(N)=O)C(=O)N[C@H](C(=O)N[C@@H](C)C(=O)N1CCC[C@H]1C(=O)N[C@@H](CCCNC(=N)N)C(=O)N[C@@H](CO)C(=O)N[C@@H](CCCCN)C(=O)N[C@H](C(=O)N[C@@H](CO)C(=O)N1CCC[C@H]1C(=O)N[C@@H](CCC(N)=O)C(=O)N1CCC[C@H]1C(=O)N1C[C@H](O)C[C@H]1C(N)=O)[C@@H](C)CC)C(C)C)[C@@H](C)O` [compound 203] (H-GCRTGTCTVQRLAHQIYQFTDKFKDNVAPRSKISPQP[Hyp]-NH2; disulfide 2-7; N-terminus assumed) showed an EC50 on hAM1 receptor above 5 µM. For the same compound, in data set [1], the “Max ThT signal (%)” value came out at 1.200%.

Take `CC[C@H](C)[C@H](NC(=O)[C@H](CCC(N)=O)NC(=O)[C@H](Cc1c[nH]cn1)NC(=O)[C@H](C)NC(=O)[C@H](CC(C)C)NC(=O)[C@H](CCCNC(=N)N)NC(=O)[C@H](CCC(N)=O)NC(=O)[C@@H](NC(=O)[C@@H](NC(=O)[C@@H]1CSSC[C@H](NC(=O)CN)C(=O)N[C@@H](CCCNC(=N)N)C(=O)N[C@@H]([C@@H](C)O)C(=O)NCC(=O)N[C@@H]([C@@H](C)O)C(=O)N1)[C@@H](C)O)C(C)C)C(=O)N[C@@H](Cc1ccc(O)cc1)C(=O)N[C@@H](CCC(N)=O)C(=O)N[C@@H](Cc1ccccc1)C(=O)N[C@H](C(=O)N[C@@H](CC(=O)O)C(=O)N[C@@H](CCCCN)C(=O)N[C@@H](Cc1ccccc1)C(=O)N[C@@H](CCCCN)C(=O)N[C@@H](CC(=O)O)C(=O)N[C@@H](CC(N)=O)C(=O)N[C@H](C(=O)N[C@@H](C)C(=O)N1CCC[C@H]1C(=O)N[C@@H](CCCNC(=N)N)C(=O)N[C@@H](CO)C(=O)N[C@@H](CCCCN)C(=O)N[C@H](C(=O)N[C@@H](CO)C(=O)N1CCC[C@H]1C(=O)N[C@@H](CCC(N)=O)C(=O)N[C@@H](C)C(=O)N1C[C@H](O)C[C@H]1C(N)=O)[C@@H](C)CC)C(C)C)[C@@H](C)O` [compound 218] (H-GCRTGTCTVQRLAHQIYQFTDKFKDNVAPRSKISPQA[Hyp]-NH2; disulfide 2-7; N-terminus assumed): the EC50 at hAM1 receptor (setting [2]) was above 5 µM. Further, in data set [1], the “Max ThT signal (%)” value was 4.500%.

With `CC[C@H](C)[C@H](NC(=O)[C@H](CCC(N)=O)NC(=O)[C@H](Cc1c[nH]cn1)NC(=O)[C@H](C)NC(=O)[C@H](CC(C)C)NC(=O)[C@H](CCCNC(N)=O)NC(=O)[C@H](CCC(N)=O)NC(=O)[C@@H](NC(=O)[C@@H](NC(=O)[C@@H]1CSSC[C@H](NC(=O)CN)C(=O)N[C@@H](CCCNC(=N)N)C(=O)N[C@@H](Cc2ccccc2)C(=O)NCC(=O)N[C@@H]([C@@H](C)O)C(=O)N1)[C@@H](C)O)C(C)C)C(=O)N[C@@H](Cc1ccc(O)cc1)C(=O)N[C@@H](CCC(N)=O)C(=O)N[C@@H](Cc1ccccc1)C(=O)N[C@H](C(=O)N[C@@H](CC(=O)O)C(=O)N[C@@H](CCCCN)C(=O)N[C@@H](CC(=O)O)C(=O)N[C@@H](CCCCN)C(=O)N[C@@H](CC(=O)O)C(=O)N[C@@H](CC(N)=O)C(=O)N[C@H](C(=O)N[C@@H](C)C(=O)N1CCC[C@H]1C(=O)N[C@@H](CCCNC(=N)N)C(=O)N[C@H](C(=O)N[C@@H](CCCCN)C(=O)N[C@H](C(=O)N[C@@H](CO)C(=O)N1CCC[C@H]1C(=O)N[C@@H](CCC(N)=O)C(=O)NCC(=O)N1C[C@H](O)C[C@H]1C(N)=O)C(C)C)[C@@H](C)O)C(C)C)[C@@H](C)O` [compound 287] (H-GCRFGTCTVQ[Cit]LAHQIYQFTDKDKDNVAPRTKVSPQG[Hyp]-NH2; disulfide 2-7; N-terminus assumed), the EC50 on hAM1 receptor (setting [2]) was above 5 µM. Moreover, the “Max ThT signal (%)” value in data set [1] worked out at 10.650%.

Turning to `CC[C@H](C)[C@H](NC(=O)[C@H](CCC(N)=O)NC(=O)[C@H](Cc1c[nH]cn1)NC(=O)[C@H](C)NC(=O)[C@H](CC(C)C)NC(=O)[C@H](CCCNC(=N)N)NC(=O)[C@H](CCC(N)=O)NC(=O)[C@@H](NC(=O)[C@@H](NC(=O)[C@@H]1CSSC[C@H](NC(=O)CN)C(=O)N[C@@H](CCCNC(=N)N)C(=O)N[C@@H]([C@@H](C)O)C(=O)NCC(=O)N[C@@H]([C@@H](C)O)C(=O)N1)[C@@H](C)O)C(C)C)C(=O)N[C@@H](C)C(=O)N[C@@H](CCC(N)=O)C(=O)N[C@@H](Cc1ccccc1)C(=O)N[C@H](C(=O)N[C@@H](CC(=O)O)C(=O)N[C@@H](CCCCN)C(=O)N[C@@H](Cc1ccccc1)C(=O)N[C@@H](CCCCN)C(=O)N[C@@H](CC(=O)O)C(=O)N[C@@H](CC(N)=O)C(=O)N[C@H](C(=O)N[C@@H](C)C(=O)N1CCC[C@H]1C(=O)N[C@@H](CCCNC(=N)N)C(=O)N[C@@H](CO)C(=O)N[C@@H](CCCCN)C(=O)N[C@H](C(=O)N[C@@H](CO)C(=O)N1CCC[C@H]1C(=O)N[C@@H](CCC(N)=O)C(=O)N[C@H](C(=O)N1C[C@H](O)C[C@H]1C(N)=O)[C@@H](C)O)[C@@H](C)CC)C(C)C)[C@@H](C)O` [compound 196] (H-GCRTGTCTVQRLAHQIAQFTDKFKDNVAPRSKISPQT[Hyp]-NH2; disulfide 2-7; N-terminus assumed), the half-maximal effective concentration (EC50) at hAM1 receptor (setting [2]) is above 5 µM. Further, in data set [1], the “Max ThT signal (%)” value came out at 0.500%.

Take `CC[C@H](C)[C@H](NC(=O)[C@H](CCC(N)=O)NC(=O)[C@H](Cc1c[nH]cn1)NC(=O)[C@H](C)NC(=O)[C@H](CC(C)C)NC(=O)[C@H](CCCNC(N)=O)NC(=O)[C@H](CCC(N)=O)NC(=O)[C@@H](NC(=O)[C@@H](NC(=O)[C@@H]1CSSC[C@H](NC(=O)CN)C(=O)N[C@@H](CCCNC(=N)N)C(=O)N[C@@H]([C@@H](C)O)C(=O)NCC(=O)N[C@@H]([C@@H](C)O)C(=O)N1)[C@@H](C)O)C(C)C)C(=O)N[C@@H](Cc1ccc(O)cc1)C(=O)N[C@@H](CCC(N)=O)C(=O)N[C@@H](Cc1ccccc1)C(=O)N[C@H](C(=O)N[C@@H](CC(=O)O)C(=O)N[C@@H](CCCCN)C(=O)N[C@@H](CC(=O)O)C(=O)N[C@@H](CCCCN)C(=O)N[C@@H](CC(=O)O)C(=O)N[C@@H](CC(N)=O)C(=O)N[C@H](C(=O)N[C@@H](C)C(=O)N1CCC[C@H]1C(=O)N[C@@H](CCCNC(=N)N)C(=O)N[C@H](C(=O)N[C@@H](CCCCN)C(=O)N[C@H](C(=O)NCC(=O)N1CCC[C@H]1C(=O)N[C@@H](CCC(N)=O)C(=O)NCC(=O)N1C[C@H](O)C[C@H]1C(N)=O)C(C)C)[C@@H](C)O)C(C)C)[C@@H](C)O` [compound 292] (H-GCRTGTCTVQ[Cit]LAHQIYQFTDKDKDNVAPRTKVGPQG[Hyp]-NH2; disulfide 2-7; N-terminus assumed): the EC50 at hAM1 receptor (setting [2]) is above 5 µM. Also, the “Max ThT signal (%)” value in data set [1] was 19.700%.
